Activity calls are given as the source filed them. No cut-off for these calls is given here. Peptide text beside a SMILES is read from it.
How the values were obtained:
CCN2-EGFR (Homo sapiens) [1] = biological target: T1, CCN2-EGFR (Homo sapiens) (UniProt P00533+P29279); experiment: Inhibition of His-tagged full length human CCN2 FL domain/human Fc-tagged EGFR protein-protein interaction using TMB as chromogenic substrate at 100 uM incubated for 140 mins by microplate reader assay relative to control
CCN2-EGFR (Homo sapiens) [2] = biological target: T1, CCN2-EGFR (Homo sapiens); experiment: Inhibition of His-tagged full length human CCN2 CT domain/human Fc-tagged EGFR protein-protein interaction using TMB as chromogenic substrate at 100 uM incubated for 140 mins by microplate reader assay relative to control
[3] = biological target: T2, CCN family member 2 (Homo sapiens) (UniProt P29279); experiment: Inhibition of recombinant human CCN2 CT domain expressed in human […] cells assessed as reduction in fibronectin synthesis at 100 uM incubated for 24 hrs by Western blotting assay; assay type: cell-based
T2 sequence (whole entry): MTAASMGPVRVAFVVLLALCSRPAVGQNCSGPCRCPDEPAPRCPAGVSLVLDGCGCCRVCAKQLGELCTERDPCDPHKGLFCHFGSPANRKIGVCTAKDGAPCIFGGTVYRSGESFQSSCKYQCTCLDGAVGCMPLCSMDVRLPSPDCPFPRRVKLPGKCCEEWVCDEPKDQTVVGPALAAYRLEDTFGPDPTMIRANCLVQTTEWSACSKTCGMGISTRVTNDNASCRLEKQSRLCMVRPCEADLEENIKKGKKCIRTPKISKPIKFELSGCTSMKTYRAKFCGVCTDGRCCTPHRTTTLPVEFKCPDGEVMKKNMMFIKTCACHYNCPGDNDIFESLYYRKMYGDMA

[4] = biological target: T2, CCN family member 2 (Homo sapiens); experiment: Inhibition of recombinant human CCN2 CT domain expressed in human […] cells assessed as reduction in COL1A1 synthesis at 100 uM incubated for 24 hrs by Western blotting assay; assay type: cell-based

T1 sequence (P00533 whole entry, looked up, one chain of several, the tested form may be a part): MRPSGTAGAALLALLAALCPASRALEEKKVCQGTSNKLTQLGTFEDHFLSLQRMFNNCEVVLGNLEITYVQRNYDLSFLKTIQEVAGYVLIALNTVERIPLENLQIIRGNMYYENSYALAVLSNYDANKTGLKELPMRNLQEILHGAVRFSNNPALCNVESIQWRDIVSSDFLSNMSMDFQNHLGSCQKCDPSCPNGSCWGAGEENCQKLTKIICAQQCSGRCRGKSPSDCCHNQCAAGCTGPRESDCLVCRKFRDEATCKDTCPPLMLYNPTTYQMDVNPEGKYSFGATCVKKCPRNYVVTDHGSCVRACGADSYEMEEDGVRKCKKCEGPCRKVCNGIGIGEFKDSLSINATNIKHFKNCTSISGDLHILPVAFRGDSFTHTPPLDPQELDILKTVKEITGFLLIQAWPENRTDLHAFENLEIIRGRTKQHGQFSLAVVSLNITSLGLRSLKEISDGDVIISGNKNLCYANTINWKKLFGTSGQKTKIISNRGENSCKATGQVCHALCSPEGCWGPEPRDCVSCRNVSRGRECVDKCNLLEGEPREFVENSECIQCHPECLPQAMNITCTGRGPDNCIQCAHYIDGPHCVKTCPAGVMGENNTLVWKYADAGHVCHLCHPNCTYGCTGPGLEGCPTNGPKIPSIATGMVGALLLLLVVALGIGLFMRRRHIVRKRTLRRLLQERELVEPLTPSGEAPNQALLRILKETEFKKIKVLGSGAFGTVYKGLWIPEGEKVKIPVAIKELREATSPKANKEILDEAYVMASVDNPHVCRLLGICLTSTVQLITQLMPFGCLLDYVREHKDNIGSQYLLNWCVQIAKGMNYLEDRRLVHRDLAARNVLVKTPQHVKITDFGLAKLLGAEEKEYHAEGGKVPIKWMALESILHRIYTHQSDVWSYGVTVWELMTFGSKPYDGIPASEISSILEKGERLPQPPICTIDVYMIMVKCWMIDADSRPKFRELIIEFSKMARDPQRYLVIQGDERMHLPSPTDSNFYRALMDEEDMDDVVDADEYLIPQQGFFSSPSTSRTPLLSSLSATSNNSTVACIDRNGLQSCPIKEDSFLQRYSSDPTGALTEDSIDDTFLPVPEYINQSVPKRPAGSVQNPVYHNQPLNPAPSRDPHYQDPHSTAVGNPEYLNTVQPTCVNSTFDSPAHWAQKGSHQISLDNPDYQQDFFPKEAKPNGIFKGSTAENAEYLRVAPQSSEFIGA

| inhibition (CCN2-EGFR (Homo sapiens) [1]) | inhibition (CCN2-EGFR (Homo sapiens) [2]) | inhibition [3] | inhibition [4] | Compound |
| --- | --- | --- | --- | --- |
| 57.8% | 72.5% | – | – | CC(C)C[C@H](NC(=O)[C@@H](N)CC(C)C)C(=O)N[C@@H](C)C(=O)N[C@@H](CC(=O)O)C(=O)N[C@H](C(=O)N[C@H](C(=O)N[C@@H](Cc1c[nH]cn1)C(=O)N[C@@H](Cc1c[nH]cn1)C(=O)N[C@@H](C)C(=O)N1CCC[C@H]1C(=O)N[C@@H](Cc1c[nH]c2ccccc12)C(=O)N[C@H](C(N)=O)[C@@H](C)O)[C@@H](C)O)[C@@H](C)O (H-LLADTTHHAPWT-NH2) |
| 19.6% | 11.1% | – | – | C[C@@H](O)[C@H](N)C(=O)N[C@@H](Cc1c[nH]cn1)C(=O)N[C@@H](Cc1c[nH]cn1)C(=O)N[C@@H](CCCNC(=N)N)C(=O)N[C@@H](CCC(=O)O)C(=O)N[C@@H](Cc1c[nH]c2ccccc12)C(=O)N[C@H](C(N)=O)[C@@H](C)O (H-THHREWT-NH2) |
| 66.6% | 62% | Active | Active | C[C@@H](O)[C@H](N)C(=O)N[C@@H](Cc1c[nH]cn1)C(=O)N[C@@H](Cc1c[nH]cn1)C(=O)N[C@@H](CCCNC(=N)N)C(=O)N1CCC[C@H]1C(=O)N[C@@H](Cc1c[nH]c2ccccc12)C(=O)N[C@H](C(N)=O)[C@@H](C)O (H-THHRPWT-NH2) |
| 37.1% | 43.6% | – | – | CC(C)C[C@H](NC(=O)[C@H](CCCNC(=N)N)NC(=O)[C@H](Cc1c[nH]cn1)NC(=O)[C@H](Cc1c[nH]cn1)NC(=O)[C@@H](N)[C@@H](C)O)C(=O)N[C@@H](Cc1c[nH]c2ccccc12)C(=O)N[C@H](C(N)=O)[C@@H](C)O (H-THHRLWT-NH2) |
| 59% | 70.7% | – | – | CC(C)C[C@H](NC(=O)[C@@H](N)CC(C)C)C(=O)N[C@@H](C)C(=O)N[C@@H](CC(=O)O)C(=O)N[C@@H](C)C(=O)N[C@H](C(=O)N[C@@H](Cc1c[nH]cn1)C(=O)N[C@@H](Cc1c[nH]cn1)C(=O)N[C@@H](CCCNC(=N)N)C(=O)N1CCC[C@H]1C(=O)N[C@@H](Cc1c[nH]c2ccccc12)C(=O)N[C@H](C(N)=O)[C@@H](C)O)[C@@H](C)O (H-LLADATHHRPWT-NH2) |
| 59.6% | 70.5% | – | – | CC(C)C[C@H](NC(=O)[C@@H](N)CC(C)C)C(=O)N[C@@H](C)C(=O)N[C@@H](CC(=O)O)C(=O)N[C@H](C(=O)N[C@H](C(=O)N[C@@H](C)C(=O)N[C@@H](Cc1c[nH]cn1)C(=O)N[C@@H](CCCNC(=N)N)C(=O)N1CCC[C@H]1C(=O)N[C@@H](Cc1c[nH]c2ccccc12)C(=O)N[C@H](C(N)=O)[C@@H](C)O)[C@@H](C)O)[C@@H](C)O (H-LLADTTAHRPWT-NH2) |
| 8.7% | 10.7% | – | – | CC(C)C[C@H](NC(=O)[C@@H](N)CC(C)C)C(=O)N[C@@H](C)C(=O)N[C@@H](CC(=O)O)C(=O)N[C@H](C(=O)N[C@H](C(=O)N[C@@H](Cc1c[nH]cn1)C(=O)N[C@@H](Cc1c[nH]cn1)C(=O)N[C@@H](CCCNC(=N)N)C(=O)N1CCC[C@H]1C(=O)N[C@@H](C)C(=O)N[C@H](C(N)=O)[C@@H](C)O)[C@@H](C)O)[C@@H](C)O (H-LLADTTHHRPAT-NH2) |
| 36.5% | 44.1% | – | – | CC(C)C[C@H](NC(=O)[C@@H](N)CC(C)C)C(=O)N[C@@H](C)C(=O)N[C@@H](CC(=O)O)C(=O)N[C@H](C(=O)N[C@@H](C)C(=O)N[C@@H](Cc1c[nH]cn1)C(=O)N[C@@H](Cc1c[nH]cn1)C(=O)N[C@@H](CCCNC(=N)N)C(=O)N1CCC[C@H]1C(=O)N[C@@H](Cc1c[nH]c2ccccc12)C(=O)N[C@H](C(N)=O)[C@@H](C)O)[C@@H](C)O (H-LLADTAHHRPWT-NH2) |
| 62.8% | 69.5% | – | – | CC(C)C[C@H](N)C(=O)N[C@@H](C)C(=O)N[C@@H](C)C(=O)N[C@@H](CC(=O)O)C(=O)N[C@H](C(=O)N[C@H](C(=O)N[C@@H](Cc1c[nH]cn1)C(=O)N[C@@H](Cc1c[nH]cn1)C(=O)N[C@@H](CCCNC(=N)N)C(=O)N1CCC[C@H]1C(=O)N[C@@H](Cc1c[nH]c2ccccc12)C(=O)N[C@H](C(N)=O)[C@@H](C)O)[C@@H](C)O)[C@@H](C)O (H-LAADTTHHRPWT-NH2) |
| 12.4% | 61.9% | – | – | C[C@@H](O)[C@H](N)C(=O)N[C@@H](Cc1c[nH]cn1)C(=O)N[C@@H](Cc1c[nH]cn1)C(=O)N[C@@H](CCC(=O)O)C(=O)N1CCC[C@H]1C(=O)N[C@@H](Cc1c[nH]c2ccccc12)C(=O)N[C@H](C(N)=O)[C@@H](C)O (H-THHEPWT-NH2) |
| 5.1% | 10.9% | – | – | C[C@@H](O)[C@H](N)C(=O)N[C@@H](Cc1c[nH]cn1)C(=O)N[C@@H](CCC(N)=O)C(=O)N[C@@H](CCCNC(=N)N)C(=O)N1CCC[C@H]1C(=O)N[C@@H](Cc1c[nH]c2ccccc12)C(=O)N[C@H](C(N)=O)[C@@H](C)O (H-THQRPWT-NH2) |
| 48.6% | 65.8% | – | – | CC(C)C[C@H](NC(=O)[C@@H](N)CC(C)C)C(=O)N[C@@H](C)C(=O)N[C@@H](CC(=O)O)C(=O)N[C@H](C(=O)N[C@H](C(=O)N[C@@H](Cc1c[nH]cn1)C(=O)N[C@@H](C)C(=O)N[C@@H](CCCNC(=N)N)C(=O)N1CCC[C@H]1C(=O)N[C@@H](Cc1c[nH]c2ccccc12)C(=O)N[C@H](C(N)=O)[C@@H](C)O)[C@@H](C)O)[C@@H](C)O (H-LLADTTHARPWT-NH2) |
| 12.5% | 11.5% | – | – | C[C@@H](O)[C@H](N)C(=O)N[C@@H](CCC(=O)O)C(=O)N[C@@H](Cc1c[nH]cn1)C(=O)N[C@@H](CCCNC(=N)N)C(=O)N1CCC[C@H]1C(=O)N[C@@H](Cc1c[nH]c2ccccc12)C(=O)N[C@H](C(N)=O)[C@@H](C)O (H-TEHRPWT-NH2) |
| 13.5% | 14.2% | – | – | CC(C)C[C@H](NC(=O)[C@@H](N)CC(C)C)C(=O)N[C@@H](C)C(=O)N[C@@H](CC(=O)O)C(=O)N[C@H](C(=O)N[C@H](C(=O)N[C@@H](Cc1c[nH]cn1)C(=O)N[C@@H](Cc1c[nH]cn1)C(=O)N[C@@H](CCCNC(=N)N)C(=O)N1CCC[C@H]1C(=O)N[C@@H](Cc1c[nH]c2ccccc12)C(=O)N[C@@H](C)C(N)=O)[C@@H](C)O)[C@@H](C)O (H-LLADTTHHRPWA-NH2) |
| 56.5% | 65.6% | – | – | CC(C)C[C@H](NC(=O)[C@@H](N)CC(C)C)C(=O)N[C@@H](C)C(=O)N[C@@H](CC(=O)O)C(=O)N[C@H](C(=O)N[C@H](C(=O)N[C@@H](Cc1c[nH]cn1)C(=O)N[C@@H](Cc1c[nH]cn1)C(=O)N[C@@H](CCCNC(=N)N)C(=O)N[C@@H](C)C(=O)N[C@@H](Cc1c[nH]c2ccccc12)C(=O)N[C@H](C(N)=O)[C@@H](C)O)[C@@H](C)O)[C@@H](C)O (H-LLADTTHHRAWT-NH2) |
| 4.5% | 1.2% | – | – | C[C@@H](O)[C@H](N)C(=O)N[C@@H](Cc1c[nH]cn1)C(=O)N[C@@H](Cc1c[nH]cn1)C(=O)N[C@@H](CCCNC(=N)N)C(=O)N[C@@H](CCC(N)=O)C(=O)N[C@@H](Cc1c[nH]c2ccccc12)C(=O)N[C@H](C(N)=O)[C@@H](C)O (H-THHRQWT-NH2) |
| 58.7% | 70.8% | – | – | CC(C)C[C@H](NC(=O)[C@H](C)N)C(=O)N[C@@H](C)C(=O)N[C@@H](CC(=O)O)C(=O)N[C@H](C(=O)N[C@H](C(=O)N[C@@H](Cc1c[nH]cn1)C(=O)N[C@@H](Cc1c[nH]cn1)C(=O)N[C@@H](CCCNC(=N)N)C(=O)N1CCC[C@H]1C(=O)N[C@@H](Cc1c[nH]c2ccccc12)C(=O)N[C@H](C(N)=O)[C@@H](C)O)[C@@H](C)O)[C@@H](C)O (H-ALADTTHHRPWT-NH2) |
| 6.8% | 11.8% | – | – | C[C@@H](O)[C@H](N)C(=O)N[C@@H](CCC(N)=O)C(=O)N[C@@H](Cc1c[nH]cn1)C(=O)N[C@@H](CCCNC(=N)N)C(=O)N1CCC[C@H]1C(=O)N[C@@H](Cc1c[nH]c2ccccc12)C(=O)N[C@H](C(N)=O)[C@@H](C)O (H-TQHRPWT-NH2) |
| 2.1% | 8.1% | – | – | C[C@@H](O)[C@H](N)C(=O)N[C@@H](Cc1c[nH]cn1)C(=O)N[C@@H](Cc1c[nH]cn1)C(=O)N[C@@H](CCC(N)=O)C(=O)N1CCC[C@H]1C(=O)N[C@@H](Cc1c[nH]c2ccccc12)C(=O)N[C@H](C(N)=O)[C@@H](C)O (H-THHQPWT-NH2) |
| 17.4% | 13.2% | – | – | C[C@@H](O)[C@@H]1NC(=O)[C@H](Cc2c[nH]c3ccccc23)NC(=O)[C@@H]2CCCN2C(=O)[C@H](CCCNC(=N)N)NC(=O)[C@H](CCCCN)NC(=O)[C@H](Cc2c[nH]cn2)NC(=O)[C@H]([C@@H](C)O)NC1=O (cyclo(HKRPWTT)) |
| 15.5% | 12.1% | – | – | C[C@@H](O)[C@H](N)C(=O)N[C@@H](Cc1c[nH]cn1)C(=O)N[C@@H](CCC(=O)O)C(=O)N[C@@H](CCCNC(=N)N)C(=O)N1CCC[C@H]1C(=O)N[C@@H](Cc1c[nH]c2ccccc12)C(=O)N[C@H](C(N)=O)[C@@H](C)O (H-THERPWT-NH2) |
| 61.4% | 76% | – | – | CC(C)C[C@H](NC(=O)[C@@H](N)CC(C)C)C(=O)N[C@@H](C)C(=O)N[C@@H](C)C(=O)N[C@H](C(=O)N[C@H](C(=O)N[C@@H](Cc1c[nH]cn1)C(=O)N[C@@H](Cc1c[nH]cn1)C(=O)N[C@@H](CCCNC(=N)N)C(=O)N1CCC[C@H]1C(=O)N[C@@H](Cc1c[nH]c2ccccc12)C(=O)N[C@H](C(N)=O)[C@@H](C)O)[C@@H](C)O)[C@@H](C)O (H-LLAATTHHRPWT-NH2) |

— ChEMBL document CHEMBL5338820, “Discovery and Design of Novel Cyclic Peptides as Specific Inhibitors Targeting CCN2 and Disrupting CCN2/EGFR Interaction for Kidney Fibrosis Treatment” (J Med Chem, 2023)
